From ChEMBL document CHEMBL1201862, “PubChem BioAssay data set” (2004)
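1) Cells in 96-well plates. 2) Compound, 48 h, 5 concentrations. 3) Linear interpolation between surrounding doses. 4) Unreached endpoint = highest concentration. GI50: concentration for 50% inhibition of growth.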 Active and inactive are the calls of the source. No stated cut-off is given here; in the data, active = GI50 up to about 1.1 µM and inactive = higher.

What was measured:
Assay in all cases: NCI-60 cell line screen, 48 h
SF-295 = test system: SF-295
SK-OV-3 = test system: SK-OV-3
SW-620 = test system: SW-620
UACC-62 = test system: UACC-62
OVCAR-8 = test system: OVCAR-8
A498 = test system: A498
HL-60 = test system: HL-60
DU-145 = test system: DU-145
HOP-62 = test system: HOP-62
IGROV-1 = test system: IGROV-1
MDA-MB-231 = test system: MDA-MB-231
K562 = test system: K562
NCI-H460 = test system: NCI-H460
KM12 = test system: KM12
HCT-116 = test system: HCT-116
OVCAR-3 = test system: OVCAR-3
OVCAR-4 = test system: OVCAR-4
Malme-3M = test system: Malme-3M
CCRF-CEM = test system: CCRF-CEM
SR = test system: SR

| Compound | GI50 (SF-295) | GI50 (SK-OV-3) | GI50 (SW-620) | GI50 (UACC-62) | GI50 (OVCAR-8) | GI50 (A498) | GI50 (HL-60) | GI50 (DU-145) | GI50 (HOP-62) | GI50 (IGROV-1) | GI50 (MDA-MB-231) | GI50 (K562) | GI50 (NCI-H460) | GI50 (KM12) | GI50 (HCT-116) | GI50 (OVCAR-3) | GI50 (OVCAR-4) | GI50 (Malme-3M) | GI50 (CCRF-CEM) | GI50 (SR) |
| --- | --- | --- | --- | --- | --- | --- | --- | --- | --- | --- | --- | --- | --- | --- | --- | --- | --- | --- | --- | --- |
| FC1CCN(C2(c3cccs3)CCCCC2)CC1 | > 100 µM (inactive) | > 100 µM (inactive) | > 100 µM (inactive) | > 100 µM (inactive) | > 100 µM (inactive) | > 100 µM (inactive) | > 100 µM (inactive) | > 100 µM (inactive) | > 100 µM (inactive) | > 100 µM (inactive) | > 100 µM (inactive) | > 100 µM (inactive) | > 100 µM (inactive) | > 100 µM (inactive) | > 100 µM (inactive) | > 100 µM (inactive) | > 100 µM (inactive) | 25.5 µM (inactive) |  |  |
| Cc1ccc2c(=O)c(C(=O)Nn3c(C)csc3=S)c[nH]c2n1 | > 100 µM (inactive) |  | > 100 µM (inactive) | > 100 µM (inactive) | > 100 µM (inactive) | > 100 µM (inactive) | > 100 µM (inactive) | > 100 µM (inactive) | > 100 µM (inactive) | > 100 µM (inactive) | > 100 µM (inactive) | > 100 µM (inactive) | > 100 µM (inactive) | > 100 µM (inactive) | > 100 µM (inactive) | > 100 µM (inactive) | > 100 µM (inactive) | > 100 µM (inactive) | > 100 µM (inactive) |  |
| CCC(=O)C1(N2CCOCC2)CCN(CCCC(=O)c2ccc(F)cc2)CC1 | > 100 µM (inactive) | > 100 µM (inactive) | > 100 µM (inactive) | > 100 µM (inactive) | > 100 µM (inactive) | > 100 µM (inactive) | > 100 µM (inactive) | > 100 µM (inactive) | > 100 µM (inactive) | > 100 µM (inactive) | > 100 µM (inactive) | > 100 µM (inactive) | > 100 µM (inactive) | > 100 µM (inactive) | > 100 µM (inactive) | > 100 µM (inactive) | > 100 µM (inactive) | > 100 µM (inactive) | > 100 µM (inactive) |  |
| Nc1ccc(S(=O)(=O)Nc2nc3ccccc3nc2Nc2ccc(S(N)(=O)=O)cc2)cc1 | 26.9 µM (inactive) | 29.8 µM (inactive) | 36.9 µM (inactive) | 30.8 µM (inactive) | 45.4 µM (inactive) |  | 25.1 µM (inactive) | 44.9 µM (inactive) | 29.2 µM (inactive) | 21.8 µM (inactive) | 53.8 µM (inactive) | 69.8 µM (inactive) | > 100 µM (inactive) | 33 µM (inactive) | 38.5 µM (inactive) | 32.4 µM (inactive) | 2.45 µM (inactive) | 22.8 µM (inactive) | 48.8 µM (inactive) | 37 µM (inactive) |
| c1ccc(-c2ccc(-c3cc4ccccc4[nH]3)cc2)cc1 | > 100 µM (inactive) | > 100 µM (inactive) | > 100 µM (inactive) | > 100 µM (inactive) | > 100 µM (inactive) |  | 27.8 µM (inactive) | > 100 µM (inactive) | > 100 µM (inactive) | > 100 µM (inactive) | > 100 µM (inactive) |  | > 100 µM (inactive) | > 100 µM (inactive) | > 100 µM (inactive) | > 100 µM (inactive) | > 100 µM (inactive) | > 100 µM (inactive) | 87.7 µM (inactive) | > 100 µM (inactive) |
| CN(CCCNC(=O)c1n[nH]c2c1ccc1ccccc12)CCCNC(=O)c1n[nH]c2c1ccc1ccccc12 | 17.3 µM (inactive) | 18.1 µM (inactive) | 16.3 µM (inactive) | 9.91 µM (inactive) | 16.4 µM (inactive) | 17.8 µM (inactive) | 1.67 µM (inactive) | 15.7 µM (inactive) | 16.8 µM (inactive) | 16.5 µM (inactive) | 10.9 µM (inactive) |  | 18 µM (inactive) | 16.9 µM (inactive) | 12.7 µM (inactive) | 13.8 µM (inactive) | 17.3 µM (inactive) | 10.3 µM (inactive) | 11.1 µM (inactive) |  |
| O=C1c2cccnc2-c2nccc3ccnc1c23 | 1.29 µM (inactive) | 1.49 µM (inactive) | 0.474 µM (active) | 0.601 µM (active) | 0.755 µM (active) | 5 µM (inactive) | 0.0248 µM (active) | 0.966 µM (active) | 3.53 µM (inactive) | 0.548 µM (active) | 1.32 µM (inactive) | 0.0456 µM (active) | 0.0583 µM (active) | 1.54 µM (inactive) | 0.0865 µM (active) | 0.343 µM (active) | 1.91 µM (inactive) | 0.853 µM (active) | 0.0309 µM (active) |  |
